Data published in patent publication US20070004660A1, “Synergistic Modulation of Flt3 Kinase Using Alkylquinolines and Alkylquinazolines” (priority 2005, published 2007).

Target: T1, wild-type FLT3 receptor (Homo sapiens, UniProt P36888)
T1 construct: host or cells: Baf3 (murine B cell lymphoma line), stably transfected
T1 sequence (P36888 27-993): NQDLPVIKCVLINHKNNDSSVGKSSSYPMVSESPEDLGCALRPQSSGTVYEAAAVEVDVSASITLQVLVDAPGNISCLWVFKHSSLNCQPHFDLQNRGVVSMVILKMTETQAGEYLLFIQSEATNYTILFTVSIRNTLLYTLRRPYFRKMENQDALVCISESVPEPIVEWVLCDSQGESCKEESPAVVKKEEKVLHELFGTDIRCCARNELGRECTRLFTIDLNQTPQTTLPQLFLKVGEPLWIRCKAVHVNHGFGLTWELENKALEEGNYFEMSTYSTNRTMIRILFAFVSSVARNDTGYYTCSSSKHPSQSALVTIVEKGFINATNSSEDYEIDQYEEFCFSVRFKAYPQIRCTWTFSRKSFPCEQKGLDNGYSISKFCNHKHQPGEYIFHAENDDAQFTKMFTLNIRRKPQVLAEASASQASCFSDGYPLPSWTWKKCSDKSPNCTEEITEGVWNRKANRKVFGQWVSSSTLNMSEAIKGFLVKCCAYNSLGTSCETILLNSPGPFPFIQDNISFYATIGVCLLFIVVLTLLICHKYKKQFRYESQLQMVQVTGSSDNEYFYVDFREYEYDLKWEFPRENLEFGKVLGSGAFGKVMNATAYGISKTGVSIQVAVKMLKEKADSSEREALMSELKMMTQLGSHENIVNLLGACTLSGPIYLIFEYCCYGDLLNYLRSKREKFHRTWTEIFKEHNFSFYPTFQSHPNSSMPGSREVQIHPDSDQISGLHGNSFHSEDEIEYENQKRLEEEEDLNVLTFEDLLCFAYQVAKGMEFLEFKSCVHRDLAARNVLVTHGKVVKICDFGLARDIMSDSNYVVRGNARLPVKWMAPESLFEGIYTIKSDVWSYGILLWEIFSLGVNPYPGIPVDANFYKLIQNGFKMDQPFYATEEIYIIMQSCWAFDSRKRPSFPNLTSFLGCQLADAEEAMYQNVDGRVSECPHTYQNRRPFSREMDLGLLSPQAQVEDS
Test: Cell-based FLT3 receptor ELISA (FLT ligand-induced phosphorylation in Baf3 FLT3 cells)
Details: 100 ng/mL Flt ligand, uncertainty ±20%
In short: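 Receptor phosphotyrosine measured by sandwich ELISA (anti-FLT3 capture, HRP anti-pTyr, luminescence) in FLT3-transfected murine Baf3 cells given 1 h compound pretreatment and 10 min 100 ng/mL FLT ligand after overnight low-serum starvation; triplicates, IC50 from nonlinear regression.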

IC50 [µM] | Compound
> 10 | COc1cc2ncnc(C3CCN(C(=O)Nc4ccc(NC(C)=O)cc4)CC3)c2cc1OC [Example 25, 4-(6,7-Dimethoxy-quinazolin-4-yl)-piperidine-1-carboxylic acid (4-acetylamino-phenyl)-amide]
0.05 | CC(C)Oc1ccc(NC(=O)N2CCC(c3ncnc4cc(Cl)ccc34)CC2)cc1 [Example 29, 4-(7-Chloro-quinazolin-4-yl)-piperidine-1-carboxylic acid (4-isopropoxy-phenyl)-amide]
0.018 | CCN(CC)CCCOc1ccc2c(C3CCN(C(=O)Nc4ccc(OC(C)C)cc4)CC3)ncnc2c1 [Example 36, 4-[7-(3-Diethylamino-propoxy)-quinazolin-4-yl)-piperidine-1-carboxylic acid (4-isopropoxy-phenyl)-amide]
0.035 | COc1ccc2c(C3CCN(C(=O)Nc4ccc(C(C)C)cc4)CC3)ncnc2c1 [Example 32, 4-(7-Methoxy-quinazolin-4-yl)-piperidine-1-carboxylic acid (4-isopropyl-phenyl)-amide]
0.109 | COc1cc2ncnc(C3CCN(C(=O)Nc4ccc(N(C)C)cc4)CC3)c2cc1OC [Example 26, 4-(6,7-Dimethoxy-quinazolin-4-yl)-piperidine-1-carboxylic acid (4-dimethylamino-phenyl)-amide]
0.06 | CCN(CC)CCOc1ccc2c(C3CCN(C(=O)Nc4ccc(OC(C)C)cc4)CC3)ncnc2c1 [Example 35, 4-[7-(2-Diethylamino-ethoxy)-quinazolin-4-yl)-piperidine-1-carboxylic acid (4-isopropoxy-phenyl)-amide]
0.083 | CC(C)c1ccc(NC(=O)N2CCC(c3ncnc4cc(Cl)ccc34)CC2)cc1 [Example 30, 4-(7-Chloro-quinazolin-4-yl)-piperidine-1-carboxylic acid (4-isopropyl-phenyl)-amide]
0.055 | COc1ccc2c(C3CCN(C(=O)Nc4ccc(OC(C)C)cc4)CC3)ncnc2c1 [Example 31, 4-(7-Methoxy-quinazolin-4-yl)-piperidine-1-carboxylic acid (4-isopropoxy-phenyl)-amide]
0.89 | COc1cc2ncnc(C3CCN(C(=O)Nc4ccc(I)cc4)CC3)c2cc1OC [Example 2, 4-(6,7-Dimethoxy-quinazolin-4-yl)-piperidine-1-carboxylic acid (4-iodo-phenyl)-amide]

Further lines, the compound ahead of its results:

Compound | IC50 [µM]
O=C1CCCN1CCOc1cc2ncnc(C3CCN(C(=O)Nc4ccc(N5CCCC5)cc4)CC3)c2cc1F [Compound 206, 4-{6-Fluoro-7-[2-(2-oxo-pyrrolidin-1-yl)-ethoxy]-quinazolin-4-yl}-piperidine-1-carboxylic acid (4-pyrrolidin-1-yl-phenyl)-amide] | 0.022
COc1cc2c(C3CCN(C(=O)Nc4ccc(N5CCCC5)cc4)CC3)ncnc2cc1OCCN1CCCC1=O [Compound 209, 4-{6-Methoxy-7-[2-(2-oxo-pyrrolidin-1-yl)-ethoxy]-quinazolin-4-yl}-piperidine-1-carboxylic acid (4-pyrrolidin-1-yl-phenyl)-amide] | 0.037
CC(C)Oc1ccc(NC(=O)N2CCC(c3ncnc4cc(OCCCN5CCOCC5)ccc34)CC2)cc1 [Example 38] | 0.015
CC(C)Oc1ccc(NC(=O)N2CCC(c3ncnc4cc(OCCCN5CCN(C)CC5)ccc34)CC2)cc1 [Example 39] | 0.008
COc1cc2ncnc(C3CCN(C(=O)Cc4ccc(C(C)C)cc4)CC3)c2cc1OC [Example 28, 1-[4-(6,7-Dimethoxy-quinazolin-4-yl)-piperidin-1-yl]-2-(4-isopropyl-phenyl)-ethanone] | 0.002
CC(C)Oc1ccc(NC(=O)N2CCC(c3ncnc4cc(OCCCN5CCCCC5)ccc34)CC2)cc1 [Example 33, 4-(7-(3-Piperidin-1-yl-propoxy)-quinazolin-4-yl)-piperidine-1-carboxylic acid (4-isopropoxy-phenyl)-amide] | 0.011
COCCOc1ccc(NC(=O)N2CCC(c3ncnc4cc(OC)c(OC)cc34)CC2)cc1 [Example 40, 4-(6,7-Dimethoxy-quinazolin-4-yl)-piperidine-1-carboxylic acid [4-(2-methoxy-ethoxy)-phenyl]-amide] | 1.5
CC(C)Oc1ccc(NC(=O)N2CCC(c3ncnc4cc(OCCN5CCOCC5)ccc34)CC2)cc1 [Example 37] | 0.051
COc1cc2c(C3CCN(C(=O)Nc4ccc(N5CCCC5)cc4)CC3)ncnc2cc1N1CCOCC1 [Compound 211, 4-(6-Methoxy-7-morpholin-4-yl-quinazolin-4-yl)-piperidine-1-carboxylic acid (4-pyrrolidin-1-yl-phenyl)-amide] | 0.001
O=C(Nc1ccc(N2CCCC2)cc1)N1CCC(c2ncnc3cc(N4CCOCC4)c(F)cc23)CC1 [Compound 210, 4-(6-Fluoro-7-morpholin-4-yl-quinazolin-4-yl)-piperidine-1-carboxylic acid (4-pyrrolidin-1-yl-phenyl)-amide] | 0.025
COc1cc2c(C3CCN(C(=O)Nc4ccc(N5CCOCC5)cc4)CC3)ncnc2cc1N1CCOCC1 [Compound 212, 4-(6-Methoxy-7-morpholin-4-yl-quinazolin-4-yl)-piperidine-1-carboxylic acid (4-morpholin-4-yl-phenyl)-amide] | 0.093
COc1cc2ncnc(C3CCN(C(=O)Nc4ccc(-n5ccnc5)cc4)CC3)c2cc1OC [Example 3, 4-(6,7-Dimethoxy-quinazolin-4-yl)-piperidine-1-carboxylic acid (4-imidazol-1-yl-phenyl)-amide] | 0.938
COc1cc2c(C3CCN(C(=O)Nc4ccc(N5CCOCC5)cc4)CC3)ncnc2cc1OCCCN1CCN(C)CC1 [Compound 207, 4-{6-Methoxy-7-[3-(4-methyl-piperazin-1-yl)-propoxy]-quinazolin-4-yl}-piperidine-1-carboxylic acid (4-morpholin-4-yl-phenyl)-amide] | 0.042
CC(C)Oc1ccc(NC(=O)N2CCC(c3ncnc4cc(OCCN5CCCCC5)ccc34)CC2)cc1 [Example 34, 4-(7-(2-Piperindin-1-yl-ethoxy)-quinazolin-4-yl)-piperidine-1-carboxylic acid (4-isopropoxy-phenyl)-amide] | 0.079
